Assay in all cases: In vitro MIC, agar dilution
Type in all cases: cell-based
In general terms: In agar dilution the substance is mixed into plates at graded concentrations.

Test [1] deals with S. aureus PC1(Meth^S)(lac^+). Conditions: for MIC: Staphylococcus aureus, read-out: minimum inhibitory concentration (MIC). The gist of the method:
(§1)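 Strains were spotted at roughly 10^4 cfu onto drug-containing Mueller-Hinton agar. MIC was read as the lowest inhibitory concentration after overnight incubation at 35-36 °C.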

Test [2] deals with S. aureus 76(Meth^R)(lac^+). Conditions: for MIC: Staphylococcus aureus, read-out: minimum inhibitory concentration (MIC). The gist of the method: as §1
Another test has as its system E. faecium A491(Amp^R). The conditions noted are these: for MIC: Enterococcus faecium, read-out: minimum inhibitory concentration (MIC). The gist of the method:
as §1

The subject of a further test is S. aureus ATCC 29213. The conditions noted are these: for MIC: Staphylococcus aureus, ATCC29213, read-out: minimum inhibitory concentration (MIC). The gist of the method: as §1
The next test deals with E. faecalis ATCC 29212. The conditions noted are these: for MIC: Enterococcus faecalis, ATCC29212, read-out: minimum inhibitory concentration (MIC). The gist of the method: as §1
For a further test, the system named is E. faecium VanA(Van^R). The conditions noted are these: for MIC: Enterococcus faecium, read-out: minimum inhibitory concentration (MIC). In outline:
as §1

The next test concerns E. coli ATCC 25992. Conditions: for MIC: Escherichia coli, ATCC25992, read-out: minimum inhibitory concentration (MIC). The gist of the method:
as §1

In test [3] the test system is S. aureus Spain #356(Meth^R). The conditions noted are these: for MIC: Staphylococcus aureus, read-out: minimum inhibitory concentration (MIC). The gist of the method:
as §1

Test [4] deals with S. haemolyticus 05(Meth^R). The conditions noted are these: for MIC: Staphylococcus haemolyticus, read-out: minimum inhibitory concentration (MIC). In outline: as §1
For test [5], the system named is S. aureus ATCC 33593(Meth^R). Conditions: for MIC: Staphylococcus aureus, ATCC33593, read-out: minimum inhibitory concentration (MIC). In outline: as §1
The next test concerns P. aeruginosa ATCC 27853. The conditions noted are these: for MIC: Pseudomonas aeruginosa, ATCC27853, read-out: minimum inhibitory concentration (MIC). The gist of the method: as §1
The subject of another test is E. faecium ATCC 35667. The conditions noted are these: for MIC: Enterococcus faecium, ATCC35667, read-out: minimum inhibitory concentration (MIC). The gist of the method:
as §1

The subject of a further test is E. faecalis VanB(Van^R). Conditions: for MIC: Enterococcus faecalis, read-out: minimum inhibitory concentration (MIC). The gist of the method: as §1
For test [6], the system named is S. aureus ATCC 13709(Meth^S). Conditions: for MIC: Staphylococcus aureus, ATCC13709, S. aureus ATCC 13709(Meth^S), read-out: minimum inhibitory concentration (MIC). The gist of the method: as §1
The subject of test [7] is S. aureus Col(Meth^R)(lac^-). Conditions: for MIC: Staphylococcus aureus, read-out: minimum inhibitory concentration (MIC). In outline: (§2)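 Two-fold dilutions (128 to ≤0.25 μg/mL, in duplicate) were poured into Mueller-Hinton agar. Log-phase broth cultures were spot-inoculated at about 10^4 cfu per spot and incubated 35-36°C for 16-20 hours; the MIC was the lowest concentration inhibiting growth. Col is a high-level PBP2a producer; Col 8A is its isogenic PBP2a-lacking partner.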

For test [8], the system named is S. aureus Col8A(Meth^S)(lac^-). The conditions noted are these: S. aureus Col8A(Meth^S)(lac^-); for MIC: Staphylococcus aureus, read-out: minimum inhibitory concentration (MIC). The gist of the method:
as §2

The structures appear in SMILES notation. Structures can show the parent of a compound that is named as a salt. Where only a bound is given, the exact number is not on record here.

As for `N=CNCCSCc1cnccc1SC1=C(C(=O)O)N2C(=O)[C@@H](NC(=O)/C(=N\O)c3csc(N)n3)[C@H]2SC1.O=C(O)C(F)(F)F` [Cmpd 25, (7R)-7-[(Z)-2-(aminothiazol-4-yl)-2-(hydroxyimino)acetamido]-3-(3-(N-formamidoyl)aminoethylthiomethylpyrid-4-ylthio)-3-cephem-4-carboxylate, trifluoroacetic acid salt], the “minimum inhibitory concentration (MIC)” value in test [1] is 0.25 µg/mL; in test [2], 2 µg/mL; in the test with E. faecium A491(Amp^R), 32 µg/mL; in the test with S. aureus ATCC 29213, 0.25 µg/mL; with E. faecalis ATCC 29212 it was 0.13 µg/mL; in the test with E. faecium VanA(Van^R), 2 µg/mL. Also, the “minimum inhibitory concentration (MIC)” value is 4 µg/mL with E. coli ATCC 25992; 2 µg/mL in test [3]; 2 µg/mL in test [4]; 1 µg/mL in test [5]; greater than 32 µg/mL in the test with P. aeruginosa ATCC 27853; 1 µg/mL in the test on E. faecium ATCC 35667. In addition, the “minimum inhibitory concentration (MIC)” value with E. faecalis VanB(Van^R) is 0.13 µg/mL; in test [6] (S. aureus ATCC 13709(Meth^S)), 0.25 µg/mL; in test [7] it was 1 µg/mL; in test [8] it was 0.25 µg/mL.

Regarding `N=C(N)SCc1ncsc1SC1=C(C(=O)O)N2C(=O)[C@@H](NC(=O)Cc3ccccc3)[C@H]2SC1` [Cmpd 5, (7R)-7-[(phenylacetyl)amino]-3-(4-isothioureidomethylthiazol-5-ylthio)-3-cephem-4-carboxylate, trifluoroacetic acid salt], the MIC in test [1] is 0.25 µg/mL; in test [2] it was 16 µg/mL; in the test on E. faecium A491(Amp^R), greater than 32 µg/mL; in the test with S. aureus ATCC 29213, 0.13 µg/mL; in the test with E. faecalis ATCC 29212 it was 2 µg/mL; in the test with E. faecium VanA(Van^R), 32 µg/mL. In addition, the MIC in the test with E. coli ATCC 25992 was greater than 32 µg/mL; in [3], 16 µg/mL; in test [4], 16 µg/mL; in [5], 16 µg/mL; in the test on P. aeruginosa ATCC 27853 it was greater than 32 µg/mL; in the test with E. faecium ATCC 35667, 4 µg/mL. In addition, the MIC in the test with E. faecalis VanB(Van^R) is 4 µg/mL; in test [6] it was no more than 0.06 µg/mL; in [7], 8 µg/mL; in test [8], no more than 0.06 µg/mL.

Turning to `O=C(Cc1ccccc1)N[C@@H]1C(=O)N2C(C(=O)O)=C(Sc3snnc3CSC3CCNC3)CS[C@H]12` (stereo partly drawn) [Cmpd 6, (7R)-7-[(phenylacetyl)amino]-3-[4-(3-pyrrolidinothiomethyl)-1,2,3-thiadiazol-5-ylthio]-3-cephem-4-carboxylate, trifluoroacetic acid salt], the MIC was 0.5 µg/mL in test [1]; 8 µg/mL in [2]; greater than 32 µg/mL in the test with E. faecium A491(Amp^R); 0.25 µg/mL with S. aureus ATCC 29213; 0.5 µg/mL in the test on E. faecalis ATCC 29212; 8 µg/mL in the test with E. faecium VanA(Van^R). In addition, the MIC is greater than 32 µg/mL in the test with E. coli ATCC 25992; 8 µg/mL in test [3]; 16 µg/mL in test [4]; 8 µg/mL in test [5]; greater than 32 µg/mL in the test with P. aeruginosa ATCC 27853; 2 µg/mL with E. faecium ATCC 35667. Also, the MIC is 8 µg/mL with E. faecalis VanB(Van^R), no more than 0.06 µg/mL in test [6], 2 µg/mL in test [7] and 0.13 µg/mL in [8].

The record behind these values is US6087355A, “Cephalosporin antibiotics” (Microcide Pharmaceuticals, Inc., priority 1996, dated 2000).
